Reference: patent publication US20230287003A1, “BCL6 INHIBITORS” (Cancer Research Technology Limited, priority 2018, published 2023)
Read-outs that look alike come from different tables or passages of the source.

Biological target: human BCL6 BTB domain (Trx-6×His-BCL6) / BCOR-AF633 peptide (Homo sapiens (Human), UniProt P41182)
Assay: HTRF assay
Type: binding
[1] = 1 nM Trx-6×His-BCL6, 300 nM BCOR-AF633 peptide, 2 hours incubation
[2] = read-out: IC50 in the HTRF assay
[3] = HTRF avg pIC50 (1 nM), 1 nM Trx-6×His-BCL6, 300 nM BCOR-AF633 peptide, 2 hours incubation

Procedure: The % inhibition at each concentration was calculated by normalising FRET ratio to the appropriate high (DMSO with all reagents) and low (DMSO without BCL6) controls.

With `C[C@H]1CN(c2ncc(Cl)c(Nc3ccc4c(c3)c3c(c(=O)n4C)OCC[C@H](C4CC4)N3)n2)CCC1(F)F` (single isomer, unassigned) [Example 14a, (R)-10-((5-chloro-2-((S)-4,4-difluoro-3-methylpiperidin-1-yl)pyrimidin-4-yl)amino)-2-cyclopropyl-7-methyl-1,2,3,4-tetrahydro-[1,4]oxazepino[2,3-c]quinolin-6(7H)-one or (R)-10-((5-chloro-2-((R)-4,4-difluoro-3-methylpiperidin-1-yl)pyrimidin-4-yl)amino)-2-cyclopropyl-7-methyl-1,2,3,4-tetrahydro-[1,4]oxazepino[2,3-c]quinolin-6(7M)-one] the “HTRF avg pIC50 (1 nM)” value [1] was 6.74.

In the case of “(S)-10-((5-chloro-2-((1S,5R)-3-methyl-2-oxo-3,8- diazabicyclo[3.2.1]octan-8-yl)pyrimidin-4-yl)amino)-2-cyclopropyl- 3,3-difluoro-7-methyl-1,2,3,4-tetrahydro-[1,4]oxazepino[2,3-c]quinolin- 6(7H)-one and (S)-10-((5-chloro-2-((1R,5S)-3-methyl-2-oxo-3,8- diazabicyclo[3.2.1]octan-8-yl)pyrimidin-4-yl)amino)-2-cyclopropyl- 3,3-difluoro-7-methyl-1,2,3,4-tetrahydro- [1,4]oxazepino[2,3-c]quinolin-6(7H)-one [Example 13b]”, the “HTRF avg pIC50 (1 nM)” value [1] is reported as 8.59.

`CC(C)C1CCOc2c(c3cc(Nc4ccnc(Cl)c4C#N)ccc3n(C)c2=O)N1` (stereo not shown) [2-chloro-4-((2-isopropyl-7-methyl-6-oxo-1,2,3,4,6,7-hexahydro-[1,4]oxazepino[2,3-c]quinolin-10-yl)amino)nicotinonitrile] showed an IC50 [2] greater than 2500 nM.

With `Cn1c(=O)c2c(c3cc(Nc4ccnc(Cl)c4C#N)ccc31)NC(C1CC1)COC2=O` (stereo not shown) [Example 6c, 2-chloro-4-((2-cyclopropyl-7-methyl-5,6-dioxo-1,2,3,5,6,7-hexahydro-[1,4]oxazepino[6,5-c]quinolin-10-yl)amino)nicotinonitrile] the “HTRF avg pIC50 (1 nM)” value [1] was 6.71.

In the case of `C[C@@H]1CN(c2ncc(Cl)c(Nc3ccc4c(c3)c3c(c(=O)n4C)SCC[C@H](C4CC4)N3)n2)C[C@H](C)C1(F)F` [Example 12m, (R)-10-((5-chloro-2-((3S,5R)-4,4-difluoro-3,5-dimethylpiperidin-1-yl)pyrimidin-4-yl)amino)-2-cyclopropyl-7-methyl-1,2,3,4-tetrahydro-[1,4]thiazepino[2,3-c]quinolin-6(7H)-one], the “HTRF avg pIC50 (1 nM)” value [1] is reported as 6.84.

`Cn1c(=O)c2c(c3cc(Nc4cc(C(=O)O)nc(Cl)c4C#N)ccc31)N[C@@H](C1CC1)CCO2` [Example 2b, (R)-6-chloro-5-cyano-4-((2-cyclopropyl-7-methyl-6-oxo-1,2,3,4,6,7-hexahydro-[1,4]oxazepino[2,3-c]quinolin-10-yl)amino)picolinic acid] showed an IC50 [3] of 8.91 nM.

For `CC1Nc2c(c(=O)n(C)c3ccc(Nc4ccnc(Cl)c4C#N)cc23)OCC12CC2` (stereo not shown) [Example 1i, 2-chloro-4-((2′,7′-dimethyl-6′-oxo-1′,2′,6′,7′-tetrahydro-4′H-spiro[cyclopropane-1,3^′-[1,4]oxazepino[2,3-c]quinolin]-10^′-yl)amino)nicotinonitrile], the “HTRF avg pIC50 (1 nM)” value [1] was 5.97.

In the case of `CCC1COc2c(c3cc(Nc4ccnc(Cl)c4C#N)ccc3n(C)c2=O)N1` (stereo not shown) [Example 1l, 2-chloro-4-((2-ethyl-6-methyl-5-oxo-2,3,5,6-tetrahydro-1H-[1,4]oxazino[2,3-c]quinolin-9-yl)amino)nicotinonitrile], the “HTRF avg pIC50 (1 nM)” value [1] is reported as 6.22.

`CC1Nc2c(c(=O)n(C)c3ccc(Nc4ccnc(Cl)c4C#N)cc23)C(=O)OC1C` (stereo not shown) [Example 6d, 2-chloro-4-((2,3,7-trimethyl-5,6-dioxo-1,2,3,5,6,7-hexahydro-[1,4]oxazepino[6,5-c]quinolin-10-yl)amino)nicotinonitrile] showed an IC50 [3] of 214 nM.

In the case of `Cn1c(=O)c2c(c3cc(Nc4ccnc(Cl)c4C#N)ccc31)NC(C)(C)COC2=O` [2-chloro-4-((2,2,7-trimethyl-5,6-dioxo-1,2,3,5,6,7-hexahydro-[1,4]oxazepino[6,5-c]quinolin-10-yl)amino)nicotinonitrile], the IC50 [2] is reported as greater than 2500 nM.

`C[C@H]1COC(=O)c2c(c3cc(Nc4nc(N5CCCC5=O)ncc4Cl)ccc3n(C)c2=O)N1` [Example 8i, (S)-10-((5-chloro-2-(2-oxopyrrolidin-1-yl)pyrimidin-4-yl)amino)-2,7-dimethyl-2,3-dihydro-[1,4]oxazepino[6,5-c]quinoline-5,6(1H,7H)-dione] was tested, and the “HTRF avg pIC50 (1 nM)” value [1] was 6.23.

In the case of “(R)-10-((5-chloro-2-((R)-4,4-difluoro-3- (hydroxymethyl)piperidin-1-yl)pyrimidin-4-yl)amino)-2- cyclopropyl-7-methyl-1,2,3,4-tetrahydro- [1,4]oxazepino[2,3-c]quinolin-6(7H)-one or (R)-10-((5-chloro- 2-((S)-4,4-difluoro-3-(hydroxymethyl)piperidin-1-yl)pyrimidin- 4-yl)amino)-2-cyclopropyl-7-methyl-1,2,3,4-tetrahydro- [1,4]oxazepino[2,3-c]quinolin-6(7H)-one [Example 15b]”, the “HTRF avg pIC50 (1 nM)” value [1] is reported as 7.51.

With “(R)-10-((5-chloro-2-((R)-4,4-difluoro-3- methylpiperidin-1-yl)pyrimidin-4-yl)amino)-2-cyclopropyl-7- methyl-1,2,3,4-tetrahydro-[1,4]oxazepino[2,3-c]quinolin- 6(7H)-one or (R)-10-((5-chloro-2-((S)-4,4-difluoro-3- methylpiperidin-1-yl)pyrimidin-4-yl)amino)-2-cyclopropyl- 7-methyl-1,2,3,4-tetrahydro-[1,4]oxazepino[2,3-c]quinolin- 6(7H)-one [Example 14b]” the “HTRF avg pIC50 (1 nM)” value [1] was 6.98.

In the case of `C[C@@H]1CN(c2ncc(Cl)c(Nc3ccc4c(c3)c3c(c(=O)n4CCO)OCC[C@H](C4CC4)N3)n2)C[C@H](C)C1(F)F` [Example 16a, (R)-10-((5-chloro-2-((3S,5R)-4,4-difluoro-3,5-dimethylpiperidin-1-yl)pyrimidin-4-yl)amino)-2-cyclopropyl-7-(2-hydroxyethyl)-1,2,3,4-tetrahydro-[1,4]oxazepino[2,3-c]quinolin-6(7H)-one], the “HTRF avg pIC50 (1 nM)” value [1] is reported as 7.17.

In the case of `Cn1c(=O)c2c(c3cc(Nc4nc(-n5ccc(C(F)(F)F)n5)ncc4Cl)ccc31)NC1(CCOC1)CCO2` (stereo not shown) [Example 5j, 10′-((5-chloro-2-(3-(trifluoromethyl)-1H-pyrazol-1-yl)pyrimidin-4-yl)amino)-7′-methyl-3′,4,4′,5-tetrahydro-1′H,2H-spiro[furan-3,2′-[1,4]oxazepino[2,3-c]quinolin]-6′(7′H)-one], the “HTRF avg pIC50 (1 nM)” value [1] is reported as 5.79.

For `C[C@@H]1CN(c2ncc(Cl)c(Nc3ccc4c(c3)c3c(c(=O)n4C)C(=O)OC[C@H](C4CC4)N3)n2)C[C@H](C)O1` [Example 8n, (S)-10-((5-chloro-2-((2S,6R)-2,6-dimethylmorpholino)pyrimidin-4-yl)amino)-2-cyclopropyl-7-methyl-2,3-dihydro-[1,4]oxazepino[6,5-c]quinoline-5,6(1H,7H)-dione], the “HTRF avg pIC50 (1 nM)” value [1] was 6.19.
